Source: ChEMBL document CHEMBL4680168, “The development of a novel transforming growth factor-β (TGF-β) inhibitor that disrupts ligand-receptor interactions” (Eur J Med Chem, 2020)
Active and inactive are the calls of the source. The rule behind the calls is not given here.

What was measured:
[1] = Cytotoxicity against MLEC assessed as reduction in cell viability at 50 uM by MTT assay; conditions: neovison vison
[2] = Inhibition of TGFbeta signalling pathway in MLEC preincubated for 30 mins followed by TGF-beta1 addition and measured after 18 hrs by Steady-Glo luciferase assay; design: species or system Neovison vison
[3] = Inhibition of TGFBR1/TGFBR2 protein-protein interaction in MLEC cells assessed as inhibition of TGF-beta1-induced dimer formation preincubated for 30 mins followed by TGF-beta1-stimulation and measured after overnight by pathhunter assay; type: cell-based, Neovison vison; conditions: Neogale vison
[4] = tested on: A549; test: Cytotoxicity against human A549 cells assessed as reduction in cell viability at 20 to 80 uM up to 48 hrs by MTT assay; type: cell-based; conditions: a549, 48 h, dose 20-80 µM
[5] = tested on: A549; test: Inhibition of TGFBR1/TGFBR2 protein-protein interaction in human A549 cells assessed as inhibition of TGF-beta1-induced Smad2/Smad3 phosphorylation at 40 uM preincubated for 2 hrs followed by TGF-beta1-stimulation and measured after 4 hrs by Western blot analysis; type: cell-based; conditions: filed as antagonist, time 6.0 hrs
[6] = tested on: A549; test: Inhibition of TGFBR1/TGFBR2 protein-protein interaction in human A549 cells assessed as inhibition of TGF-beta1-induced Erk1/Erk2 phosphorylation at 40 uM preincubated for 2 hrs followed by TGF-beta1-stimulation and measured after 4 hrs by Western blot analysis; type: cell-based; conditions: filed as antagonist, time 6.0 hrs
[7] = tested on: A549; test: Inhibition of TGFBR1/TGFBR2 protein-protein interaction in human A549 cells assessed as inhibition of TGF-beta1-induced Akt phosphorylation at 40 uM preincubated for 2 hrs followed by TGF-beta1-stimulation and measured after 4 hrs by Western blot analysis; type: cell-based; conditions: filed as antagonist, time 6.0 hrs
[8] = tested on: A549; test: Inhibition of TGFBR1/TGFBR2 protein-protein interaction in human A549 cells assessed as inhibition of TGF-beta1-induced Smad2/Smad3 phosphorylation at 40 uM incubated for 6 hrs by Western blot analysis; type: cell-based
[9] = tested on: A549; test: Inhibition of TGFBR1/TGFBR2 protein-protein interaction in human A549 cells assessed as inhibition of TGF-beta1-induced Erk1/Erk2 phosphorylation at 40 uM incubated for 6 hrs by Western blot analysis; type: cell-based; conditions: filed as antagonist
[10] = tested on: A549; test: Inhibition of TGFBR1/TGFBR2 protein-protein interaction in human A549 cells assessed as inhibition of TGF-beta1-induced Akt phosphorylation at 40 uM incubated for 6 hrs by Western blot analysis; type: cell-based; conditions: filed as antagonist
[11] = tested on: A549; test: Inhibition of TGFBR1/TGFBR2 protein-protein interaction in human A549 cells assessed as reduction in TGF-beta1-induced fibronectin expression preincubated for 2 hrs followed by TGF-beta1 addition and measured after 4 hrs by Western blot analysis; type: cell-based; conditions: filed as antagonist, dose 20-80 µM, time 6.0 hrs
[12] = tested on: A549; test: Inhibition of TGFBR1/TGFBR2 protein-protein interaction in human A549 cells assessed as reduction in TGF-beta1-induced MMP-2 expression preincubated for 2 hrs followed by TGF-beta1 addition and measured after 4 hrs by Western blot analysis; type: cell-based; conditions: filed as antagonist, dose 20-80 µM, time 6.0 hrs
[13] = tested on: A549; test: Inhibition of TGFBR1/TGFBR2 protein-protein interaction in human A549 cells assessed as reduction in TGF-beta1-induced alpha-SMA expression preincubated for 2 hrs followed by TGF-beta1 addition and measured after 4 hrs by Western blot analysis; type: cell-based; conditions: filed as antagonist, dose 20-80 µM, time 6.0 hrs
[14] = tested on: A549; test: Inhibition of TGFBR1/TGFBR2 protein-protein interaction in human A549 cells assessed as reduction in TGF-beta1-induced cell migration expression at 40 to 80 uM preincubated for 2 hrs followed by TGF-beta1 addition and measured after 24 hrs by scratch-wound healing assay; type: cell-based; conditions: filed as antagonist, dose 40-80 µM, time 26.0 hrs
[15] = tested on: A549; test: Inhibition of TGFBR1/TGFBR2 protein-protein interaction in human A549 cells assessed as reduction in TGF-beta1-induced cell migration expression preincubated for 2 hrs followed by TGF-beta1 addition and measured after 48 hrs by scratch-wound healing assay; type: cell-based; conditions: filed as antagonist, dose 20-80 µM, time 50.0 hrs
[16] = tested on: A549; test: Inhibition of TGFBR1/TGFBR2 protein-protein interaction in human A549 cells assessed as reduction in TGF-beta1-induced cell migration expression preincubated for 2 hrs followed by TGF-beta1 addition and measured after 24 hrs by crystal violet staining based transwell assay; conditions: filed as antagonist, dose 20-80 µM, time 26.0 hrs

COC(=O)c1cccc(CNCc2c(C)c(CNCc3cccc(C(=O)OC)c3)c(C)c(CNCc3cccc(C(=O)OC)c3)c2C)c1
Activity [1]: Toxic

COC(=O)c1ccc(NCc2c(C)c(CNc3ccc(C(=O)OC)cc3)c(C)c(CNc3ccc(C(=O)OC)cc3)c2C)cc1
Activity [1]: Non-Toxic | IC50 [2]: Not Active

c1ccc(CN2COc3c(c4c(c5c3CN(Cc3ccccc3)CO5)CN(Cc3ccccc3)CO4)C2)cc1
IC50 ([2]; read-out: IC50): 18 µM

COC(=O)c1cccc(NCc2c(C)c(CNc3cccc(C(=O)OC)c3)c(C)c(CNc3cccc(C(=O)OC)c3)c2C)c1
Activity [1]: Non-Toxic | IC50 ([2]; read-out: IC50): 38.1 µM

Cc1c(CNc2cccc(C(N)=O)c2)c(C)c(CNc2cccc(C(N)=O)c2)c(C)c1CNc1cccc(C(N)=O)c1
Activity [1]: Non-Toxic | IC50 ([2]; read-out: IC50): 31.9 µM

CC(=O)c1ccc(NCc2c(C)c(CNc3ccc(C(C)=O)cc3)c(C)c(CNc3ccc(C(C)=O)cc3)c2C)cc1
Activity [1]: Non-Toxic | IC50 ([2]; read-out: IC50): > 50 µM

Cc1c(CNc2ccc(C(N)=O)cc2)c(C)c(CNc2ccc(C(N)=O)cc2)c(C)c1CNc1ccc(C(N)=O)cc1
Activity [1]: Non-Toxic | IC50 [2]: Not Active

Cc1c(CNCc2ccccc2)c(C)c(CNCc2ccccc2)c(C)c1CNCc1ccccc1
Activity [1]: Toxic

Cc1c(CNc2ccccc2)c(C)c(CNc2ccccc2)c(C)c1CNc1ccccc1
Activity [1]: Non-Toxic | IC50 ([2]; read-out: IC50): 5.3 µM | IC50 [3]: 23.6 µM | Activity [4]: Non-Toxic | Activity [5]: Active | Activity [6]: Active | Activity [7]: Active | Activity [8]: inactive | Activity [9]: Active | Activity [10]: Active | Activity [11]: Dose-dependent effect | Activity [12]: Dose-dependent effect | Activity [13]: Dose-dependent effect | Activity [14]: Active | Activity [15]: Dose-dependent effect | Activity [16]: Dose-dependent effect

CC(=O)c1cccc(NCc2c(C)c(CNc3cccc(C(C)=O)c3)c(C)c(CNc3cccc(C(C)=O)c3)c2C)c1
Activity [1]: Non-Toxic | IC50 [2]: Not Active

COC(=O)c1ccc(CNCc2c(C)c(CNCc3ccc(C(=O)OC)cc3)c(C)c(CNCc3ccc(C(=O)OC)cc3)c2C)cc1
Activity [1]: Toxic
